Data taken from paper PMC3910101 (International journal of cancer. Journal international du …, 2012).

Target: Hsp90
Test: SPR
Format: binding, Homo sapiens

A Kd of 4.99 µM was found for `CC(C)=CCCC1(C)C=Cc2c(c(C)cc3c2[nH]c2cc(O)ccc23)O1` (stereo not shown) [mahanine] in this work.
